Test results taken from US8722658B2, “Azetidinyl diamides as monoacylglycerol lipase inhibitors” (Janssen Pharmaceutica, NV, priority 2009, dated 2014).

Key:
[1] = tested on: rat, CFA-induced thermal hypersensitivity; test: CFA-Induced Paw Radiant Heat Hypersensitivity; format: in vivo; details: 30 mg/kg p.o., HPβCD, group mean values, last time point 180 or 300 min
Protocol: Each rat was placed in a test chamber on a warm glass surface and allowed to acclimate for approximately 10 min. A radiant thermal stimulus (beam of light) was then focused through the glass onto the plantar surface of each hind paw in turn. The thermal stimulus was automatically shut off by a photoelectric relay when the paw was moved or when the cut-off time was reached (20 sec for radiant heat at ˜5 amps). An initial (baseline) response latency to the thermal stimulus was recorded for each animal prior to the injection of complete Freund's adjuvant (CFA). 24 h following intraplantar CFA injection, the response latency of the animal to the thermal stimulus was then re-evaluated and compared to the animal's baseline response time. […] Post-compound treatment withdrawal latencies were assessed at fixed time intervals, typically 30, 60, 120, 180, and 300 min.
The percent reversal (% R) of hypersensitivity was calculated in one of two different ways: 1) using group mean values or 2) using individual animal values. […]
For all compounds, the % R of hypersensitivity was calculated using the mean value for groups of animals at each time point according to the following formula: % reversal=[(group treatment response−group CFA response)/(group baseline response−group CFA response)]×100 Results are given for the maximum % reversal observed for each compound at any time point tested. […]

mutant MGL = target: T1, mutant MGL (Homo sapiens, UniProt Q99685, L169S/L176S); test: MGL ThermoFluor Assay-Mutant; details: read-out: MGL mutant ThermoFluor qKd (using qNMR conc.), compound concentration measured by qNMR
T1 sequence (Q99685 1-303 L169S/L176S): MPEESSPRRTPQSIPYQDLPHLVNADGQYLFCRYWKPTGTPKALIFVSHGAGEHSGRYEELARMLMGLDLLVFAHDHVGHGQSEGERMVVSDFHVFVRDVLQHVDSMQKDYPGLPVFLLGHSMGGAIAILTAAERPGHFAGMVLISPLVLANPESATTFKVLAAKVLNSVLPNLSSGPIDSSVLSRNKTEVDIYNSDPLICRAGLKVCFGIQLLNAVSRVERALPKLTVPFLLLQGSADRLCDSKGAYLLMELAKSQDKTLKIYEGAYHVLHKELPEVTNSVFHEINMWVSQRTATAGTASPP
Protocol: The ThermoFluor (TF) assay is a 384-well plate-based binding assay that measures thermal stability of proteins^1,2. […] TF dye used in all experiments was 1,8-ANS (Invitrogen: A-47). Final TF assay conditions used for MGL studies were 0.07 mg/ml of mutant MGL, 100 μM ANS, 200 mM NaCl, 0.001% Tween-20 in 50 mM PIPES (pH=7.0).
Screening compound plates contained 100% DMSO compound solutions at a single concentration. […] Columns 12 and 24 were used as DMSO reference and contained no compound. […] Following compound dispension, protein and dye solutions were added to achieve the final assay volume of 3 μL.
Bar-coded assay plates were robotically loaded onto a thermostatically controlled PCR-type thermal block and then heated from 40 to 90° C. degrees at a ramp-rate of 1° C./min for all experiments. Fluorescence was measured by continuous illumination with UV light (Hamamatsu LC6), supplied via fiber optics and filtered through a band-pass filter (380-400 nm; >6 OD cutoff). Fluorescence emission of the entire 384-well plate was detected by measuring light intensity using a CCD camera (Sensys, Roper Scientific) filtered to detect 500±25 nm, resulting in simultaneous and independent readings of all 384 wells. […]

SMILES	Method 1: peak % reversal [1] [%]	Kd (mutant MGL) [nM]
O=C(c1ccc(-c2cccc(C(F)(F)F)c2)c(Cl)c1)N1CC(N2CCN(C(=O)c3cscn3)CC2)C1 [Cpd 1102]	38	
Cc1nc(C(=O)N2CCN(C3CN(C(=O)c4ccc(-c5cccc(C(F)(F)F)c5)cc4)C3)CC2)cs1 [Cpd 1217, 1-[(2-Methyl-l,3-thiazol-4-yl)carbonyl]-4-(1-{[3′-(trifluoromethyl)biphenyl-4-yl]carbonyl}azetidin-3-yl)piperazine]		104
